Experimental data from ChEMBL document CHEMBL3885861, “Open TG-GATES”.

Organism: Rattus norvegicus
Assay: Open TG-GATES - Regimen: Daily Repeat
Format: toxicity, organism-based, Sprague-Dawley
Parameters: regimen Daily Repeat, gender Male, age 6 weeks
Conditions: in vivo, po, route gavage; for ALP / ALT / AST / BUN / CRE / Ca / Cl / DBIL / GLC / IP / K / LDH / Na / PL / RALB / TBIL / TC / TG / TP / gamma-GTP / A/G: tissue Plasma; for APTT / Bas / Eos / Fbg / Hb / Ht / Lym / MCH / MCHC / MCV / Mono / Neu / PT / Plat / RBC / Ret / WBC: tissue Blood; for KIDNEY_L / KIDNEY_R / KIDNEY_TOTAL: tissue Kidney; for LIVER: tissue Liver
[1] = 3 mg/kg, […], dose level Low, time 14 day
[2] = 3 mg/kg, […], dose level Low, time 28 day
[3] = 10 mg/kg, 72 h, dose level Middle, time 3 day
[4] = 10 mg/kg, […], dose level Middle, time 7 day
[5] = 10 mg/kg, […], dose level Middle, time 14 day
[6] = 10 mg/kg, […], dose level Middle, time 28 day
[7] = 30 mg/kg, 72 h, dose level High, time 3 day
[8] = 30 mg/kg, […], dose level High, time 7 day
[9] = 30 mg/kg, […], dose level High, time 14 day

## C[C@H]1C(=O)O[C@@H]2CCN3CC=C(COC(=O)[C@](C)(O)[C@]1(C)O)[C@H]23 [MONOCROTALINE]
[1]
  ALP: 1435.6 IU/L
  ALT: 41.4 IU/L
  AST: 76.6 IU/L
  BUN: 16.4 mg/dL
  CRE: 0.2 mg/dL
  Ca: 11 mg/dL
  Cl: 106.4 meq/L
  DBIL: 0 mg/dL
  GLC: 185.4 mg/dL
  IP: 6.2 mg/dL
  K: 4 meq/L
  LDH: 269.8 IU/L
  Na: 142.4 meq/L
  PL: 161.6 mg/dL
  RALB: 3 g/dL
  TBIL: 0 mg/dL
  TC: 92.2 mg/dL
  TG: 97 mg/dL
  TP: 5.9 g/dL
  gamma-GTP: 2.2 IU/L
[2]
  A/G: 1.1
  ALP: 1124.2 IU/L
  ALT: 41.8 IU/L
  AST: 87.4 IU/L
  BUN: 19 mg/dL
  CRE: 0.2 mg/dL
  Ca: 10.7 mg/dL
  Cl: 108.4 meq/L
  DBIL: 0 mg/dL
  GLC: 182.2 mg/dL
  IP: 6 mg/dL
  K: 4.3 meq/L
  LDH: 290.2 IU/L
  Na: 143.2 meq/L
  PL: 158.8 mg/dL
  RALB: 3.2 g/dL
  TBIL: 0.034 mg/dL
  TC: 81.2 mg/dL
  TG: 128.2 mg/dL
  TP: 6.1 g/dL
  gamma-GTP: 1.2 IU/L
[3]
  TERMINAL_BW: 231.2 g
  APTT: 19.4 s
  Bas: 0%
  Eos: 0.8%
  Fbg: 324.6 mg/dL
  Hb: 13.8 g/dL
  Ht: 40.1%
  Lym: 78.2%
  MCH: 21.5 pg
  MCHC: 34.5%
  MCV: 62.2 fL
  Mono: 2.8%
  Neu: 17.6%
  PT: 15.9 s
  Plat: 126.9 x10_4/uL
  RBC: 646.6 x10_4/ul
  Ret: 6%
  WBC: 73.2 x10_2/uL
  KIDNEY_L: 1 g
  KIDNEY_R: 1 g
  KIDNEY_TOTAL: 2 g
  LIVER: 10.7 g
  A/G: 1.3
  ALP: 1897.2 IU/L
  ALT: 40.8 IU/L
  AST: 73.6 IU/L
  BUN: 16.2 mg/dL
  CRE: 0.2 mg/dL
  Ca: 10.9 mg/dL
  Cl: 106.4 meq/L
  DBIL: 0.002 mg/dL
  GLC: 184.4 mg/dL
  IP: 7.2 mg/dL
  K: 4.6 meq/L
  LDH: 283 IU/L
  Na: 142 meq/L
  PL: 167.2 mg/dL
  RALB: 3.1 g/dL
  TBIL: 0.01 mg/dL
  TC: 90.4 mg/dL
  TG: 113.6 mg/dL
  TP: 5.5 g/dL
  gamma-GTP: 1 IU/L
[4]
  TERMINAL_BW: 249.4 g
  APTT: 21.5 s
  Bas: 0%
  Eos: 1%
  Fbg: 391.6 mg/dL
  Hb: 13.9 g/dL
  Ht: 39.4%
  Lym: 78.8%
  MCH: 20.7 pg
  MCHC: 35.1%
  MCV: 58.8 fL
  Mono: 4.2%
  Neu: 14.8%
  PT: 16.4 s
  Plat: 134.7 x10_4/uL
  RBC: 670.6 x10_4/ul
  Ret: 4.5%
  WBC: 135.7 x10_2/uL
  KIDNEY_L: 1.1 g
  KIDNEY_R: 1.1 g
  KIDNEY_TOTAL: 2.2 g
  LIVER: 11.6 g
  A/G: 1.1
  ALP: 1684.4 IU/L
  ALT: 46.6 IU/L
  AST: 87.8 IU/L
  BUN: 15.4 mg/dL
  CRE: 0.1 mg/dL
  Ca: 11 mg/dL
  Cl: 107.4 meq/L
  DBIL: 0.002 mg/dL
  GLC: 181.2 mg/dL
  IP: 6.6 mg/dL
  K: 4.3 meq/L
  LDH: 236 IU/L
  Na: 142 meq/L
  PL: 149 mg/dL
  RALB: 3 g/dL
  TBIL: 0.006 mg/dL
  TC: 82 mg/dL
  TG: 111 mg/dL
  TP: 5.7 g/dL
  gamma-GTP: 1.8 IU/L
[5]
  TERMINAL_BW: 274.8 g
  APTT: 21.2 s
  Bas: 0%
  Eos: 0.2%
  Fbg: 480 mg/dL
  Hb: 14.4 g/dL
  Ht: 41.1%
  Lym: 84.2%
  MCH: 20.5 pg
  MCHC: 35.2%
  MCV: 58.2 fL
  Mono: 4.8%
  Neu: 9.6%
  PT: 16.4 s
  Plat: 136.8 x10_4/uL
  RBC: 705.4 x10_4/ul
  Ret: 2.9%
  WBC: 250.8 x10_2/uL
  KIDNEY_L: 1.1 g
  KIDNEY_R: 1.2 g
  KIDNEY_TOTAL: 2.3 g
  LIVER: 13.3 g
  A/G: 0.8
  ALP: 2092 IU/L
  ALT: 88.8 IU/L
  AST: 174.4 IU/L
  BUN: 17.2 mg/dL
  CRE: 0.3 mg/dL
  Ca: 11.2 mg/dL
  Cl: 106.6 meq/L
  DBIL: 0.006 mg/dL
  GLC: 171 mg/dL
  IP: 5.9 mg/dL
  K: 4.8 meq/L
  LDH: 454.8 IU/L
  Na: 141 meq/L
  PL: 139 mg/dL
  RALB: 2.6 g/dL
  TBIL: 0.008 mg/dL
  TC: 71.6 mg/dL
  TG: 103.2 mg/dL
  TP: 5.8 g/dL
  gamma-GTP: 2.4 IU/L
[6]
  TERMINAL_BW: 321 g
  APTT: 26.9 s
  Bas: 0%
  Eos: 1%
  Fbg: 293.8 mg/dL
  Hb: 15.3 g/dL
  Ht: 43.1%
  Lym: 76.4%
  MCH: 18.8 pg
  MCHC: 35.6%
  MCV: 52.7 fL
  Mono: 4.6%
  Neu: 17%
  PT: 16.1 s
  Plat: 84.1 x10_4/uL
  RBC: 818 x10_4/ul
  Ret: 4.5%
  WBC: 308 x10_2/uL
  KIDNEY_L: 1.3 g
  KIDNEY_R: 1.3 g
  KIDNEY_TOTAL: 2.6 g
  LIVER: 15 g
  A/G: 0.9
  ALP: 1353.2 IU/L
  ALT: 82.8 IU/L
  AST: 155 IU/L
  BUN: 17.4 mg/dL
  CRE: 0.2 mg/dL
  Ca: 11 mg/dL
  Cl: 107.8 meq/L
  DBIL: 0.078 mg/dL
  GLC: 167.6 mg/dL
  IP: 6 mg/dL
  K: 4.5 meq/L
  LDH: 382.8 IU/L
  Na: 141.4 meq/L
  PL: 140 mg/dL
  RALB: 2.9 g/dL
  TBIL: 0.1 mg/dL
  TC: 79.6 mg/dL
  TG: 47.2 mg/dL
  TP: 6 g/dL
  gamma-GTP: 1.6 IU/L
[7]
  TERMINAL_BW: 232.9 g
  APTT: 17.3 s
  Bas: 0%
  Eos: 0.8%
  Fbg: 350.2 mg/dL
  Hb: 13.8 g/dL
  Ht: 39.9%
  Lym: 73.6%
  MCH: 21.4 pg
  MCHC: 34.5%
  MCV: 62.1 fL
  Mono: 4.4%
  Neu: 19.8%
  PT: 16.2 s
  Plat: 124.3 x10_4/uL
  RBC: 643.2 x10_4/ul
  Ret: 4.8%
  WBC: 80.8 x10_2/uL
  KIDNEY_L: 1 g
  KIDNEY_R: 1 g
  KIDNEY_TOTAL: 2.1 g
  LIVER: 12.5 g
  A/G: 1.3
  ALP: 1831.6 IU/L
  ALT: 47.2 IU/L
  AST: 112.4 IU/L
  BUN: 13.6 mg/dL
  CRE: 0.1 mg/dL
  Ca: 11.1 mg/dL
  Cl: 106.4 meq/L
  DBIL: 0.01 mg/dL
  GLC: 180.2 mg/dL
  IP: 7 mg/dL
  K: 4.5 meq/L
  LDH: 398 IU/L
  Na: 141.2 meq/L
  PL: 161.4 mg/dL
  RALB: 3.2 g/dL
  TBIL: 0.028 mg/dL
  TC: 88.4 mg/dL
  TG: 100 mg/dL
  TP: 5.7 g/dL
  gamma-GTP: 1.2 IU/L
[8]
  TERMINAL_BW: 230.5 g
  APTT: 24.3 s
  Bas: 0%
  Eos: 0.4%
  Fbg: 451.4 mg/dL
  Hb: 14.1 g/dL
  Ht: 40.7%
  Lym: 71.6%
  MCH: 20.2 pg
  MCHC: 34.6%
  MCV: 58.3 fL
  Mono: 4.8%
  Neu: 18.6%
  PT: 17.5 s
  Plat: 44 x10_4/uL
  RBC: 697.8 x10_4/ul
  Ret: 2.9%
  WBC: 122 x10_2/uL
  KIDNEY_L: 1.1 g
  KIDNEY_R: 1.1 g
  KIDNEY_TOTAL: 2.2 g
  LIVER: 11.3 g
  A/G: 1
  ALP: 1889.2 IU/L
  ALT: 273.2 IU/L
  AST: 504.2 IU/L
  BUN: 13 mg/dL
  CRE: 0.2 mg/dL
  Ca: 10.8 mg/dL
  Cl: 106 meq/L
  DBIL: 0.2 mg/dL
  GLC: 156 mg/dL
  IP: 6.9 mg/dL
  K: 4.4 meq/L
  LDH: 749.6 IU/L
  Na: 141 meq/L
  PL: 139.8 mg/dL
  RALB: 2.6 g/dL
  TBIL: 0.3 mg/dL
  TC: 86.4 mg/dL
  TG: 38.8 mg/dL
  TP: 5.3 g/dL
  gamma-GTP: 2.2 IU/L
[9]
  Mono: 7%
  BUN: 13.5 mg/dL
  CRE: 0.2 mg/dL
  TP: 4.9 g/dL
